Here are results for nine compounds from patent EP3917907B1, “MODULATORS OF POTASSIUM ION CHANNELS AND USES THEREOF” (Universitá Degli Studi Di Salerno, priority 2019, dated 2020).

For one data set, the target named is T1, Kv7.2 (Homo sapiens, UniProt O43526).
T1 construct: expressed in transfected cells; host or cells: CHO cells (ATCC CRL-9618), transient transfection, pcDNA3.1(+)
Put plainly: Whole-cell patch-clamp on CHO cells transiently expressing Kv7.2. It counts as cell-based. To be noted: CHO cells, mean±SEM, >1 activating, <1 inhibiting; for Idrug/Ictl at 0 mV: ratio of ramp-evoked Kv7.2 current amplitude in presence and absence of drug at 0 mV; for Idrug/Ictl at -40 mV: ratio of ramp-evoked Kv7.2 current amplitude in presence and absence of drug at -40 mV. On the technique in general: In patch-clamp work, channel activity is measured electrically.

Data set [1] in a line: Solution stability (HPLC, extracellular solution, ambient temperature). The data set is classed as physicochemical. To be noted: percentage of degradation after 6 h at ambient temperature; 100 ppm in extracellular solution pH 7.4. Put shortly:
(§1)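 Analyte diluted from 1 mg/mL DMSO stock to 100 ppm in extracellular buffer (NaCl, CaCl2, KCl, MgCl2, glucose, HEPES, pH 7.4) and either kept at ambient temperature or irradiated with a solar simulator, each for 6 h. C18 RP-HPLC (40°C) peak areas at 0 and 6 h give % degradation = (Pa0−Pa6)/Pa0 ×100.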

Data set [2] in a line: Photostability (HPLC, solar simulator irradiation). It counts as physicochemical. To be noted: percentage of degradation after 6 h irradiation with solar simulator; 100 ppm in extracellular solution pH 7.4. An outline of the steps: as §1

In the case of `O=S(=O)(Nc1ccc2c(c1)CCN2CCc1ccc(F)cc1)C1CCCCC1` [N-(1-(4-fluorophenethyl)indolin-5-yl)cyclohexanesulfonamide], at Kv7.2, the “Idrug/Ictl at 0 mV” value worked out at 1.37±0.17 and the “Idrug/Ictl at -40 mV” value is 3.24±1.52. In data set [1], the Solution stability result is given as “C (degradation > 40%)”. Besides, in data set [2], the Photostability entry is given as “C (degradation > 40%)”.

With `COc1ccc(Cn2ccc3cc(NS(=O)(=O)C4CCCCC4)ccc32)cc1` [N-(1-(4-methoxybenzyl)-1H-indol-5-yl)cyclohexanesulfonamide], at Kv7.2, the “Idrug/Ictl at 0 mV” value came to 1.63±0.06 and the “Idrug/Ictl at -40 mV” value came to 2.00±0.36. Moreover, the Solution stability result in data set [1] was “A (degradation lower than 20%)”. Besides, the Photostability result in data set [2] was “A (degradation lower than 20%)”.

On to `COc1ccc(CN2c3ccc(NS(=O)(=O)C4CCCCC4)cc3CC2C)cc1` (stereo not drawn) [N-(1-(4-methoxybenzyl)-2-methylindolin-5-yl)cyclohexanesulfonamide], for which, on Kv7.2, the “Idrug/Ictl at 0 mV” value is 0.92±0.13 and the “Idrug/Ictl at -40 mV” value is listed as 1.13±0.15. Besides, the Solution stability entry in data set [1] is “B (20%< degradation<40%)”. Further, the Photostability result in data set [2] is “C (degradation > 40%)”.

As for `COc1ccc(CN2CCc3cc(NS(=O)(=O)C4CCCCC4)ccc32)cc1` [N-(1-(4-methoxybenzyl)indolin-5-yl)cyclohexanesulfonamide], at Kv7.2, the “Idrug/Ictl at 0 mV” value is on record as 4.24±0.83 and the “Idrug/Ictl at -40 mV” value was determined as 6.43±1.51. Besides, in data set [1], the Solution stability entry is reported as “C (degradation > 40%)”. Moreover, the Photostability result in data set [2] is recorded as “C (degradation > 40%)”.

`CCCCCCC(=O)Nc1ccc(NCc2ccc(C(F)(F)F)cc2)c(F)c1N` [N-(2-amino-3-fluoro-4-((4-(trifluoromethyl)benzyl)amino)phenyl)heptanamide]: on Kv7.2, the “Idrug/Ictl at 0 mV” value is reported as 1.94±0.12 and the “Idrug/Ictl at -40 mV” value was found to be 5.76±1.28. Moreover, the Solution stability entry in data set [1] is recorded as “A (degradation lower than 20%)”. Also, the Photostability entry in data set [2] was “A (degradation lower than 20%)”.

Turning to `CCCCCCC(=O)Nc1ccc(NCc2ccc(OC(F)(F)F)cc2)cc1N` [N-(2-amino-4-((4-(trifluoromethoxy)benzyl)amino)phenyl)heptanamide], at Kv7.2, the “Idrug/Ictl at 0 mV” value was 2.05±0.56 and the “Idrug/Ictl at -40 mV” value is 12.4±2.05. The Solution stability result in data set [1] is recorded as “A (degradation lower than 20%)”. Also, in data set [2], the Photostability result is listed as “B (20%< degradation<40%)”.

Turning to `Nc1cc(NCc2ccc(C(F)(F)F)cc2)ccc1NS(=O)(=O)C1CCCCC1` [N-(2-amino-4-((4-(trifluoromethyl)benzyl)amino)phenyl)cyclohexanesulfonamide], on Kv7.2, the “Idrug/Ictl at 0 mV” value came out at 0.19±0.1 and the “Idrug/Ictl at -40 mV” value is 1.5±0.2. In addition, in data set [1], the Solution stability entry is recorded as “C (degradation > 40%)”. Further, in data set [2], the Photostability result is listed as “C (degradation > 40%)”.

As to `CCCCCCC(=O)Nc1ccc(NCc2ccc(F)cc2)c(F)c1` [N-(3-fluoro-4-((4-fluorobenzyl)amino)phenyl)heptanamide], at Kv7.2, the “Idrug/Ictl at 0 mV” value is listed as 3.30±0.40 and the “Idrug/Ictl at -40 mV” value is 8.85±1.17. In addition, in data set [1], the Solution stability result is given as “A (degradation lower than 20%)”. Further, the Photostability entry in data set [2] is “A (degradation lower than 20%)”.

With `CCOC(=O)Nc1ccc2c(c1)CCN2Cc1ccc(F)cc1` [ethyl (1-(4-fluorobenzyl)indolin-5-yl)carbamate], at Kv7.2, the “Idrug/Ictl at 0 mV” value worked out at 1.26±0.13 and the “Idrug/Ictl at -40 mV” value is 2.01±0.58. Moreover, the Solution stability result in data set [1] is listed as “A (degradation lower than 20%)”. Further, the Photostability result in data set [2] is reported as “C (degradation > 40%)”.
